Values quoted from earlier work as cited in patent publication US20030211177A1, “Method and composition for treatment and prevention of alopecia” (priority 2003, published 2003).

Tested on: patients' hair (alopecia)
Settings: Propecia literature

In the case of CC(C)(C)NC(=O)[C@H]1CC[C@H]2[C@@H]3CC[C@H]4NC(=O)C=C[C@]4(C)[C@H]3CC[C@]12C [Propecia ®, finasteride], the “Excellent Improvement (percent of subjects)” value is listed as 0%, the “Moderate Improvement (percent of subjects)” value is listed as 4% and the “No Improvement (percent of subjects)” value is listed as 62%. The “Slight Improvement (percent of subjects)” value was 34%.
